Experimental findings from US7851436B2, “Inhibition of migration and induction of cell death by the type II collagen amino propeptides” (Washington University, priority 2007, dated 2010) are described below.

Entries after “also recorded” stand apart in the source; their conditions may differ.

Data set [1] has as its target T1, αV integrin (Homo sapiens, UniProt P06756).
T1 construct: Cell homogenates were then mixed with GST, PIIBNP, or mPIIBNP; endogenous in cells; host or cells: Ch-1 human chondrosarcoma cell lysate
Description: Integrin αV immunoprecipitation. Type of data set: binding. Particulars: Ch-1 cell lysates. How it is done: Integrin αV Immunoprecipitation. Ch-1 cells were lysed in lysis buffer (50 mM Hepes-KOH [pH 7.4]; 150 mM NaCl; 1% Triton X-100; 10% glycerol; 1 mM EGTA; 1 mM EDTA; 10 mM sodium pyrophosphate; 100 mM sodium fluoride; 0.2 mM sodium orthovanadate; supplemented with the proteinase inhibitors cocktail (Sigma) overnight at 4° C. Cell homogenates were then mixed with GST, PIIBNP, or mPIIBNP and incubated for 1 hours at room temperature. Protein A agarose (Sigma) previously bound with integrin αV antibody was incubated with cell homogenate mixture for 4 h at 4° C. with gentle shaking. After washing (5 mins.×3), the precipitated material was analyzed by SDS-PAGE and detected with chicken anti PIIBNP antibody.

Data set [2] deals with siRNA-treated Ch-1 cells. Description: Cell death in integrin αV siRNA-treated Ch-1 cells. Particulars: 0.8 μM, serum-free medium, 24 hrs. The format is cell-based, human. How it is done: Detection of Cell Death. Cells were cultured to confluence in a 24-well plate pre-coated with type I collagen, fibronectin (Sigma), and ECM Matrigel (Becton Dickinson). Proteins in serum-free medium were added to the cells. Cells were monitored by light microscopy and images were digitally photographed using a Q capture Retiga 2000R camera. Quantification of cells remaining in the well was performed by washing with PBS for three times, fixing with 4% paraformaldehyde. The cells per field (×400) were counted for three field per well (3 wells per measurement). The mean number and standard deviation (SD) were calculated.
SiRNA Interference. Ch-1 cells were grown to 60-80% confluence in 6 well plates in Opti-Mem medium (Invitrogen) without antibiotics and serum. A reported method (6) is used in the design of siRNAs, sense and antisense oligonucleotides. The final concentration of oligonucleotides was 0.05 μM. Transfection was performed using a lipofectamine kit (InVitrogen). Half of the wells were stimulated with 200 ng/ml PMA (phorbol 12-myristate 13-acetate) after 4 hours incubation with oligonucleotides. Total RNA was collected via the TriZol method after incubation for 44 hours. 1 μg of total RNA was reverse transcribed with Superscript RT II in a 40 μl volume. […] Bands were quantified with Image Quant software.

The subject of data set [3] is Ch-1 cells. Kind of data set: Internalization of propeptides (immunostaining). Type of data set: cell-based, human. From the text: Ch-1 cells exposed to GST-PIIBNP and GST-PIIANP were immunostained with immunospecific antibodies. […] The internalization of PIIBNP may be exploited to target exogenous agents to cells expressing αVβ3 and αVβ5 integrins.
The test system of data set [4] is FGF induced mouse cornea neovascularization. Kind of data set: In vivo mouse cornea angiogenesis inhibition assay. Particulars: Balb/c mice, osmotic pumps, one week. How it is done:
FGF containing PolyHEMA pellets were implanted into the corneas of 6 week old Balb/c mice. The mice received osmotic pumps containing a number of proteins to measure the ability of each protein to inhibit angiogenesis. After one week the mice were sacrificed and angiogenesis was quantified based on the total vessel length seen from fluorescently labeled vessels.
To prepare a FGF Pellet (67 ng/quarter pellet) PBS (1 μl of 1×PBS pH 7.4), sucralfate (Sigma, #S0652)(1 μL of a 100 mg/mL suspension of sucralfate), Human FGF-2 (Peprotech, 100-1 8B)(1 μL of 3.2 mg/mL FGF-2), and poly-hema (poly(2-hydroxyethyl methacrylate), Sigma, P3932)(3 μL of 250 mg/mL poly-hema) were combined. Pellets (0.5 μL) were prepped on parafilm, air dried for 10-20 mins, and divided into quarters. The resulting pellets were sealed with parafilm and stored at −20° C. until needed.
To implant the pellet, a mouse was injected with Ketamine/Xylazine (about 0.1 mg KX/gram mouse, IP injection). […]
After one week the mice are injected with same amount of Ketamine given during the implantation procedure. […] Any remaining tissues will show up when the cornea is mounted and viewed with fluorescence. […] Angiogenesis is measured by total vessel outgrowth based on the fluorescently stained blood vessels using Metamorph software (FIG. 9).

Data set [5] deals with mouse osteoclast cells. Description: Osteoclast viability (trypan blue exclusion). Type of data set: cell-based. Conditions: 16 hours at 37° C. How it is done:
(§1) FIG. 10 depicts a graph showing mouse chondrogenic cells (ATDC5), mouse osteoblast cells, and mouse osteoclast cells treated with recombinant GST, PIIBNP or mPIIBNP proteins for 16 hours at 37° C. The cells were trypsinized and cell viability was assayed using a trypan blue exclusion based cell counting. PPIIBNP induced death in osteoclasts that resorb the bone, but not the osteoblasts that form bone.

Data set [6] relates to mouse chondrogenic cells (ATDC5). Description: Chondrogenic cell viability (trypan blue exclusion). The format is cell-based. Conditions: 16 hours at 37° C. How it is done:
as §1

T1 sequence (P06756 31-889 limits assumed): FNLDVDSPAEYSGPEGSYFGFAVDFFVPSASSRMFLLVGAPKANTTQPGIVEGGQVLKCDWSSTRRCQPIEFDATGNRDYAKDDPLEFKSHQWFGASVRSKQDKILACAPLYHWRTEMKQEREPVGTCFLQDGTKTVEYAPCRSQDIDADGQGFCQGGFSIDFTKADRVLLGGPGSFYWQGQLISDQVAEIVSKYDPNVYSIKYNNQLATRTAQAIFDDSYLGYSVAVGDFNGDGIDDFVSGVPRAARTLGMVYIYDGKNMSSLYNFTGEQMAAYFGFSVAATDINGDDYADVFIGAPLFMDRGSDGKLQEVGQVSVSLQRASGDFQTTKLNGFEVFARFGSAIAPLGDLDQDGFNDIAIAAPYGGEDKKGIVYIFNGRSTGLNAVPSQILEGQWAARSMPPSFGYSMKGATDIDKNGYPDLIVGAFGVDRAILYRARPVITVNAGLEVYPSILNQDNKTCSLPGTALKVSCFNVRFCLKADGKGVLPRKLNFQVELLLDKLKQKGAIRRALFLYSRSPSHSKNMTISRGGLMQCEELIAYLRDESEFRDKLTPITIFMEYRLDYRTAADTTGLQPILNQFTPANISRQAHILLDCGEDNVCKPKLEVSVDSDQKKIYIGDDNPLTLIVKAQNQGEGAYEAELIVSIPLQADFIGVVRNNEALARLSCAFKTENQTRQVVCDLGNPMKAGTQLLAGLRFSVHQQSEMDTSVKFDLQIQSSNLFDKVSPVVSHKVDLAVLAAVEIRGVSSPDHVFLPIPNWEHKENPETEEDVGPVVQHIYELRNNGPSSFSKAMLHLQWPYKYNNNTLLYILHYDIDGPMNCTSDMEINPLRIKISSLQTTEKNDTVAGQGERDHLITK
T1 sequence (P06756 891-1048 limits assumed): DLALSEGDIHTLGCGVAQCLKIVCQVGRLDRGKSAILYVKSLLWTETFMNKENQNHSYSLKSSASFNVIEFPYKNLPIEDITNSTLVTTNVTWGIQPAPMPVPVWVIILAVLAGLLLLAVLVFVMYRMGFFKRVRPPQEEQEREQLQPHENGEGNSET

On to “PIIBNP: Recombinant human Type IIB procollagen NH2-propeptide (exons 3-8, lacking exon 2), expressed as GST fusion protein”, for which the “immunoprecipitation with αV integrin specific antibody” value in data set [1] was “immunoprecipitated”. The “induction of cell death in αV siRNA-treated Ch-1 cells” value in data set [2] is given as “not able to induce cell death; also recorded: did not induce cell death”. Also, the internalization into cells result in data set [3] is reported as “is internalized”. Besides, in data set [3] (30 minutes of exposure), the “colocalization with actin filaments” value was “colocalized with actin filaments”. The “localization to the nucleus” value in data set [3] (2 hours of exposure) is reported as “localized to the nucleus; also recorded: colocalized with the nucleus”. Further, the “inhibition of angiogenesis (cornea neovascularization)” value in data set [4] (FGF pellets) is “inhibits angiogenesis in vivo; also recorded: suppression of neovascularization”. Besides, the toxicity entry in data set [4] is on record as “no apparent toxicity”. The “induction of osteoclast death” value in data set [5] (listed as PPIIBNP) is listed as “induced death”; in data set [5] (listed as Type IIB propeptide), “induced the death”. Further, the “induction of ATDC5 cell death” value in data set [6] is “did not lead to the mouse chondrogenic cell (ATDC5) death”.
